Laboratory results: patent US9023821B2, “Use of MicroRNA for treating diseases associated with a dysfunction of the cilia in multiciliated epithelial cells” (Centre National de la Recherche Scientifique, priority 2009, dated 2015)

Experiments:
[1] = test system: human airway epithelial cells (HAECs); test: High-throughput sequencing (HTS) of miRNAs at four stages of differentiation of HAECs; conditions: for Modulation (ratio of the level of intensity of expression in log2 in two stages of differentiation) measured by high-throughput sequencing, D7 − D0 / Modulation (ratio of the level of intensity of expression in log2 in two stages of differentiation) measured by high-throughput sequencing, FC − D7 / Modulation (ratio of the level of intensity of expression in log2 in two stages of differentiation) measured by high-throughput sequencing, WD − D0 / Modulation (ratio of the level of intensity of expression in log2 in two stages of differentiation) measured by high-throughput sequencing, WD − FC / Level of intensity of expression in log2 measured by high-throughput sequencing, D0 / Level of intensity of expression in log2 measured by high-throughput sequencing, D7 / Level of intensity of expression in log2 measured by high-throughput sequencing, FC / Level of intensity of expression in log2 measured by high-throughput sequencing, WD: Table VI; for Level of intensity of expression in log2 At the differentiated stage (WD) measured in HTS: healthy human airway epithelial tissue; for Level of intensity of expression in log2 measured by high-throughput sequencing, D0: stage D0; for Level of intensity of expression in log2 measured by high-throughput sequencing, D7: stage D7; for Level of intensity of expression in log2 measured by high-throughput sequencing, FC: stage FC; for Level of intensity of expression in log2 At the differentiated stage (WD) measured in HTS / Level of intensity of expression in log2 measured by high-throughput sequencing, WD: stage WD; for Modulation (ratio of the level of intensity of expression in log2 in two stages of differentiation), D7 − D0 / Modulation (ratio of the level of intensity of expression in log2 in two stages of differentiation), FC − D7 / Modulation (ratio of the level of intensity of expression in log2 in two stages of differentiation), WD − FC / Abundance (%), D0 / Abundance (%), D7 / Abundance (%), FC / Abundance (%), WD: HTS; for Abundance (%), D0: ALI-D0; for Abundance (%), D7: ALI-D7; for Abundance (%), FC: ALI-FC; for Abundance (%), WD: ALI-WD
Method in brief: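 Differentiation time course at air-liquid interface: 0, 7, ~14 (first cilia) and ~21 days (fully differentiated). Sequencing counts per strand were normalized to 10^6 sequences and analysed by linear model with empirical Bayesian moderation.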

[2] = test system: human airway epithelial cells (HAECs); test: Agilent miRNA chips, miRNA expression at four stages of differentiation of HAECs; conditions: for Modulation (ratio of the level of intensity of expression in log2 in two stages of differentiation) measured with the Agilent chips, D7 − D0 / Modulation (ratio of the level of intensity of expression in log2 in two stages of differentiation) measured with the Agilent chips, FC − D7 / Modulation (ratio of the level of intensity of expression in log2 in two stages of differentiation) measured with the Agilent chips, WD − D0 / Modulation (ratio of the level of intensity of expression in log2 in two stages of differentiation) measured with the Agilent chips, WD − FC / Level of intensity of expression in log2 measured with the Agilent chips, D0 / Level of intensity of expression in log2 measured with the Agilent chips, D7 / Level of intensity of expression in log2 measured with the Agilent chips, FC / Level of intensity of expression in log2 measured with the Agilent chips, WD: Table VI; for Modulation (ratio of the level of intensity of expression in log2 at two stages of differentiation), FC − D7 / Modulation (ratio of the level of intensity of expression in log2 at two stages of differentiation), WD − FC: Agilent miRNA chips, Table V; for Level of intensity of expression in log2 measured with the Agilent chips, D0: stage D0; for Level of intensity of expression in log2 measured with the Agilent chips, D7: stage D7; for Level of intensity of expression in log2 measured with the Agilent chips, FC: stage FC; for Level of intensity of expression in log2 measured with the Agilent chips, WD: stage WD
Method in brief: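 To benchmark sequencing, the microRNAome was also profiled by hybridizing labelled RNA from identical patient samples to v2 arrays with miRBase v.12.0 human content (866 miRNAs) and 89 viral miRNAs.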

[3] = test system: basal cells and pyramidal cells of the airway epithelium; test: miRNA expression in sorted basal cells versus pyramidal cells (ciliated + secretory), HTS and Agilent chips; design: species or system human; conditions: for Modulation of expression of the miRNAs in pyramidal cells (323(−)) relative to basal cells 323(+): HTS and Agilent chips; for Intensity of the level of expression in log2 in pyramidal cells (323(−)): pyramidal cells (ciliated + secretory)
Method in brief: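 Sorted basal versus ciliated/mucus-secreting cells; markers CD151 and tissue factor; donors n=3; miRNA by Agilent chip or HTS.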

Row | Substance | Modulation (ratio of the level of intensity of expression in log2 in two stages of differentiation) measured by high-throughput sequencing, D7 − D0 [1] [log2] | Modulation (ratio of the level of intensity of expression in log2 in two stages of differentiation) measured by high-throughput sequencing, FC − D7 [1] [log2] | Modulation (ratio of the level of intensity of expression in log2 in two stages of differentiation) measured by high-throughput sequencing, WD − D0 [1] [log2] | Modulation (ratio of the level of intensity of expression in log2 in two stages of differentiation) measured by high-throughput sequencing, WD − FC [1] [log2] | Level of intensity of expression in log2 At the differentiated stage (WD) measured in HTS [1] [log2] | Level of intensity of expression in log2 measured by high-throughput sequencing, D0 [1] [log2] | Level of intensity of expression in log2 measured by high-throughput sequencing, D7 [1] [log2] | Level of intensity of expression in log2 measured by high-throughput sequencing, FC [1] [log2] | Level of intensity of expression in log2 measured by high-throughput sequencing, WD [1] [log2] | Modulation (ratio of the level of intensity of expression in log2 in two stages of differentiation) measured with the Agilent chips, D7 − D0 [2] [log2] | Modulation (ratio of the level of intensity of expression in log2 in two stages of differentiation) measured with the Agilent chips, FC − D7 [2] [log2] | Modulation (ratio of the level of intensity of expression in log2 in two stages of differentiation) measured with the Agilent chips, WD − D0 [2] [log2] | Modulation (ratio of the level of intensity of expression in log2 in two stages of differentiation) measured with the Agilent chips, WD − FC [2] [log2] | Level of intensity of expression in log2 measured with the Agilent chips, D0 [2] [log2] | Level of intensity of expression in log2 measured with the Agilent chips, D7 [2] [log2] | Level of intensity of expression in log2 measured with the Agilent chips, FC [2] [log2] | Level of intensity of expression in log2 measured with the Agilent chips, WD [2] [log2] | Modulation of expression of the miRNAs in pyramidal cells (323(−)) relative to basal cells 323(+) [3] | Intensity of the level of expression in log2 in basal cells (323(+)) [3] [log2] | Intensity of the level of expression in log2 in pyramidal cells (323(−)) [3] [log2] | also measured
1 | hsa-miR-26b: human miRNA, SEQ ID No. 29 (UUCAAGUAAUUCAGGAUAGGU; expressed or natural sequence; listed as Homo sapiens) | 0.09 | 0.05 | 0.92 | 0.78 | 6.81 | 6.84 | 6.93 | 6.97 | 7.75 | 1.94 | −0.37 | 1.65 | 0.08 | 7.97 | 9.91 | 9.54 | 9.62 | −1.47 | 8.75 | 7.28 | Modulation (ratio of the level of intensity of expression in log2 at two stages of differentiation), FC − D7 [2]: −0.37 log2; Modulation (ratio of the level of intensity of expression in log2 at two stages of differentiation), WD − FC [2]: 0.08 log2
2 | hsa-miR-27b: human miRNA, SEQ ID No. 30 (UUCACAGUGGCUAAGUUCUGC; expressed or natural sequence; listed as Homo sapiens) | 0.64 | −0.69 | −0.11 | −0.06 | 14.81 | 6.92 | 7.57 | 6.88 | 6.81 | 1.77 | −0.47 | 1.36 | 0.05 | 9.26 | 11.03 | 10.57 | 10.62 | −3.56 | 9.77 | 6.21 | Modulation (ratio of the level of intensity of expression in log2 at two stages of differentiation), FC − D7 [2]: −0.47 log2; Modulation (ratio of the level of intensity of expression in log2 at two stages of differentiation), WD − FC [2]: 0.05 log2
3 | hsa-miR-29a: human miRNA, SEQ ID No. 31 (UAGCACCAUCUGAAAUCGGUUA; expressed or natural sequence; listed as Homo sapiens) | −1.34 | −0.11 | −1.43 | 0.02 | 14.53 | 16.24 | 14.90 | 14.79 | 14.81 | 0.17 | −0.71 | −0.38 | 0.16 | 11.23 | 11.40 | 10.69 | 10.85 | −2.95 | 11.09 | 8.14 | Modulation (ratio of the level of intensity of expression in log2 in two stages of differentiation), D7 − D0 [1]: −1.34 log2; Modulation (ratio of the level of intensity of expression in log2 in two stages of differentiation), FC − D7 [1]: −0.11 log2; Modulation (ratio of the level of intensity of expression in log2 in two stages of differentiation), WD − FC [1]: 0.02 log2; Abundance (%), D0 [1]: 17.01%; Abundance (%), D7 [1]: 6.72%; Abundance (%), FC [1]: 6.02%; Abundance (%), WD [1]: 4.64%
4 | hsa-miR-29c: human miRNA, SEQ ID No. 32 (UAGCACCAUUUGAAAUCGGUUA; expressed or natural sequence; listed as Homo sapiens) | 0.82 | 0.02 | 0.87 | 0.03 | 9.74 | 13.66 | 14.48 | 14.50 | 14.53 | 1.61 | −0.28 | 1.57 | 0.24 | 9.04 | 10.66 | 10.38 | 10.62 | −3.06 | 11.06 | 8.00 | Modulation (ratio of the level of intensity of expression in log2 in two stages of differentiation), D7 − D0 [1]: 0.82 log2; Modulation (ratio of the level of intensity of expression in log2 in two stages of differentiation), FC − D7 [1]: 0.02 log2; Modulation (ratio of the level of intensity of expression in log2 in two stages of differentiation), WD − FC [1]: 0.03 log2; Abundance (%), D0 [1]: 2.84%; Abundance (%), D7 [1]: 5.03%; Abundance (%), FC [1]: 4.95%; Abundance (%), WD [1]: 3.82%; Modulation (ratio of the level of intensity of expression in log2 at two stages of differentiation), FC − D7 [2]: −0.28 log2; Modulation (ratio of the level of intensity of expression in log2 at two stages of differentiation), WD − FC [2]: 0.24 log2
